Laboratory results: PubChem BioAssay AID2060882 (Molecular Pharmacology Branch, DTP, NCI, 2025)

Tested on: 898857-211-R-J1-PDC complex spheroids, growth % test/control
Experiment: Anticancer human tumor 898857-211-R-J1-PDC patient-derived melanoma cell line growth inhibition [RAS]
Details: for IC50: curve of first compound; for viability, T/C: stronger effect = lower value
Summary of the method: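 Agents were tested in combination matrices in half-log decrements from a top concentration at or near clinical Cmax (10 microM if undetermined). Targets were multi-cell spheroids of tumour lines plus HUVEC and MSC stromal cells.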

[1] = second compound 0.0316 µM, first compound 0.0316 µM
[2] = second compound 0.0316 µM, first compound 0.1 µM
[3] = second compound 0.0316 µM, first compound 0.316 µM
[4] = second compound 0.0316 µM, first compound 1 µM
[5] = second compound 0.0316 µM, first compound 3.16 µM
[6] = second compound 0.0316 µM, first compound 10 µM
[7] = second compound 0.1 µM, first compound 0.0316 µM
[8] = second compound 0.1 µM, first compound 0.1 µM
[9] = second compound 0.1 µM, first compound 0.316 µM
[10] = second compound 0.1 µM, first compound 1 µM
[11] = second compound 0.1 µM, first compound 3.16 µM
[12] = second compound 0.1 µM, first compound 10 µM
[13] = second compound 0.316 µM, first compound 0.0316 µM
[14] = second compound 0.316 µM, first compound 0.1 µM
[15] = second compound 0.316 µM, first compound 0.316 µM
[16] = second compound 0.316 µM, first compound 1 µM
[17] = second compound 0.316 µM, first compound 3.16 µM
[18] = second compound 0.316 µM, first compound 10 µM
[19] = second compound 1 µM, first compound 0.0316 µM
[20] = second compound 1 µM, first compound 0.1 µM
[21] = second compound 1 µM, first compound 0.316 µM
[22] = second compound 1 µM, first compound 1 µM
[23] = second compound 1 µM, first compound 3.16 µM
[24] = second compound 1 µM, first compound 10 µM
[25] = second compound 3.16 µM, first compound 0.0316 µM
[26] = second compound 3.16 µM, first compound 0.1 µM
[27] = second compound 3.16 µM, first compound 0.316 µM
[28] = second compound 3.16 µM, first compound 1 µM
[29] = second compound 3.16 µM, first compound 3.16 µM
[30] = second compound 3.16 µM, first compound 10 µM
[31] = second compound 10 µM, first compound 0.0316 µM
[32] = second compound 10 µM, first compound 0.1 µM
[33] = second compound 10 µM, first compound 0.316 µM
[34] = second compound 10 µM, first compound 1 µM
[35] = second compound 10 µM, first compound 3.16 µM
[36] = second compound 10 µM, first compound 10 µM
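Further: spheroids exposed to compound for seven days before readout.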
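Wherever viability, T/C is given: 100% = DMSO vehicle control wells.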

## CCC(CC)c1cc(NC2CCC(N)C2)n2nccc2n1 (stereo not drawn) + C#Cc1c(F)ccc2cc(O)cc(-c3ncc4c(N5CC6CCC(C5)N6)nc(OCC56CCCN5CC(F)C6)nc4c3F)c12
Second compound 0.0316 µM
  IC50: 1.07 µM
Second compound 0.1 µM
  IC50: 1.21 µM
Second compound 0.316 µM
  IC50: 1.24 µM
Second compound 1 µM
  IC50: 1.26 µM
Second compound 3.16 µM
  IC50: 1.09 µM
Second compound 10 µM
  IC50: 0.032 µM
[1]
  viability, T/C: 113%
[2]
  viability, T/C: 105%
[3]
  viability, T/C: 97.6%
[4]
  viability, T/C: 54.5%
[5]
  viability, T/C: 1.81%
[6]
  viability, T/C: 0.32%
[7]
  viability, T/C: 119%
[8]
  viability, T/C: 98.3%
[9]
  viability, T/C: 101%
[10]
  viability, T/C: 60%
[11]
  viability, T/C: 2.14%
[12]
  viability, T/C: 0.33%
[13]
  viability, T/C: 99.7%
[14]
  viability, T/C: 107%
[15]
  viability, T/C: 93.4%
[16]
  viability, T/C: 61.6%
[17]
  viability, T/C: 1.82%
[18]
  viability, T/C: 0.52%
[19]
  viability, T/C: 103%
[20]
  viability, T/C: 121%
[21]
  viability, T/C: 105%
[22]
  viability, T/C: 61.9%
[23]
  viability, T/C: 2.03%
[24]
  viability, T/C: 0.38%
[25]
  viability, T/C: 105%
[26]
  viability, T/C: 97.1%
[27]
  viability, T/C: 92.5%
[28]
  viability, T/C: 55%
[29]
  viability, T/C: 1.64%
[30]
  viability, T/C: 0.34%
[31]
  viability, T/C: 52.9%
[32]
  viability, T/C: 32.4%
[33]
  viability, T/C: 30%
[34]
  viability, T/C: 25.2%
[35]
  viability, T/C: 0.4%
[36]
  viability, T/C: 0.18%

## Cc1nc(N2CCC3(CC2)COC(C)C3N)c(CO)nc1Sc1ccnc(N)c1Cl (stereo not drawn) + C#Cc1c(F)ccc2cc(O)cc(-c3ncc4c(N5CC6CCC(C5)N6)nc(OCC56CCCN5CC(F)C6)nc4c3F)c12
Second compound 0.0316 µM
  IC50: > 10 µM
Second compound 0.1 µM
  IC50: > 10 µM
Second compound 0.316 µM
  IC50: > 10 µM
Second compound 1 µM
  IC50: > 10 µM
Second compound 3.16 µM
  IC50: > 10 µM
Second compound 10 µM
  IC50: < 0.0316 µM
[1]
  viability, T/C: 117%
[2]
  viability, T/C: 91.8%
[3]
  viability, T/C: 100%
[4]
  viability, T/C: 97.3%
[5]
  viability, T/C: 89.8%
[6]
  viability, T/C: 88.3%
[7]
  viability, T/C: 103%
[8]
  viability, T/C: 96.6%
[9]
  viability, T/C: 96.2%
[10]
  viability, T/C: 87.1%
[11]
  viability, T/C: 97.2%
[12]
  viability, T/C: 86.3%
[13]
  viability, T/C: 101%
[14]
  viability, T/C: 102%
[15]
  viability, T/C: 102%
[16]
  viability, T/C: 98.2%
[17]
  viability, T/C: 103%
[18]
  viability, T/C: 99%
[19]
  viability, T/C: 104%
[20]
  viability, T/C: 108%
[21]
  viability, T/C: 107%
[22]
  viability, T/C: 104%
[23]
  viability, T/C: 96.6%
[24]
  viability, T/C: 108%
[25]
  viability, T/C: 96.8%
[26]
  viability, T/C: 108%
[27]
  viability, T/C: 86.3%
[28]
  viability, T/C: 106%
[29]
  viability, T/C: 103%
[30]
  viability, T/C: 90.8%
[31]
  viability, T/C: 37.6%
[32]
  viability, T/C: 45.1%
[33]
  viability, T/C: 49%
[34]
  viability, T/C: 52.2%
[35]
  viability, T/C: 38.2%
[36]
  viability, T/C: 15.8%

## NC1c2ccccc2OC12CCN(c1cnc3c(N4CCCc5ncccc54)n[nH]c3n1)CC2 (stereo not drawn) + C#Cc1c(F)ccc2cc(O)cc(-c3ncc4c(N5CC6CCC(C5)N6)nc(OCC56CCCN5CC(F)C6)nc4c3F)c12
Second compound 0.0316 µM
  IC50: > 10 µM
Second compound 0.1 µM
  IC50: > 10 µM
Second compound 0.316 µM
  IC50: > 10 µM
Second compound 1 µM
  IC50: > 10 µM
Second compound 3.16 µM
  IC50: > 10 µM
Second compound 10 µM
  IC50: 0.0357 µM
[1]
  viability, T/C: 95.6%
[2]
  viability, T/C: 90.5%
[3]
  viability, T/C: 90.5%
[4]
  viability, T/C: 88.5%
[5]
  viability, T/C: 91.5%
[6]
  viability, T/C: 74.9%
[7]
  viability, T/C: 91.8%
[8]
  viability, T/C: 89.3%
[9]
  viability, T/C: 103%
[10]
  viability, T/C: 91.7%
[11]
  viability, T/C: 87.3%
[12]
  viability, T/C: 74.4%
[13]
  viability, T/C: 99.5%
[14]
  viability, T/C: 98%
[15]
  viability, T/C: 94%
[16]
  viability, T/C: 88.1%
[17]
  viability, T/C: 88.7%
[18]
  viability, T/C: 77.1%
[19]
  viability, T/C: 109%
[20]
  viability, T/C: 105%
[21]
  viability, T/C: 100%
[22]
  viability, T/C: 91.5%
[23]
  viability, T/C: 103%
[24]
  viability, T/C: 76%
[25]
  viability, T/C: 102%
[26]
  viability, T/C: 93.7%
[27]
  viability, T/C: 109%
[28]
  viability, T/C: 99.5%
[29]
  viability, T/C: 95.9%
[30]
  viability, T/C: 50.4%
[31]
  viability, T/C: 49%
[32]
  viability, T/C: 48%
[33]
  viability, T/C: 25.5%
[34]
  viability, T/C: 22.5%
[35]
  viability, T/C: 9.18%
[36]
  viability, T/C: 2.12%

## Nc1ccn(C2OC(CO)C(O)C2(F)F)c(=O)n1 (stereo not drawn) + C#Cc1c(F)ccc2cc(O)cc(-c3ncc4c(N5CC6CCC(C5)N6)nc(OCC56CCCN5CC(F)C6)nc4c3F)c12
Second compound 0.0316 µM
  IC50: 0.00732 µM
Second compound 0.1 µM
  IC50: 0.00752 µM
Second compound 0.316 µM
  IC50: 0.00789 µM
Second compound 1 µM
  IC50: 0.00711 µM
Second compound 3.16 µM
  IC50: 0.00722 µM
Second compound 10 µM
  IC50: < 0.00316 µM
Second compound 0.0316 µM, first compound 0.00316 µM
  viability, T/C: 105%
Second compound 0.0316 µM, first compound 0.01 µM
  viability, T/C: 29.7%
[1]
  viability, T/C: 6.72%
[2]
  viability, T/C: 5%
[3]
  viability, T/C: 5.45%
[4]
  viability, T/C: 5.38%
Second compound 0.1 µM, first compound 0.00316 µM
  viability, T/C: 92.7%
Second compound 0.1 µM, first compound 0.01 µM
  viability, T/C: 36%
[7]
  viability, T/C: 7.32%
[8]
  viability, T/C: 5.55%
[9]
  viability, T/C: 5.77%
[10]
  viability, T/C: 5.83%
Second compound 0.316 µM, first compound 0.00316 µM
  viability, T/C: 97.4%
Second compound 0.316 µM, first compound 0.01 µM
  viability, T/C: 37.7%
[13]
  viability, T/C: 7.43%
[14]
  viability, T/C: 4.86%
[15]
  viability, T/C: 5.48%
[16]
  viability, T/C: 5.75%
Second compound 1 µM, first compound 0.00316 µM
  viability, T/C: 91.7%
Second compound 1 µM, first compound 0.01 µM
  viability, T/C: 32.4%
[19]
  viability, T/C: 8.35%
[20]
  viability, T/C: 5.57%
[21]
  viability, T/C: 4.9%
[22]
  viability, T/C: 5.48%
Second compound 3.16 µM, first compound 0.00316 µM
  viability, T/C: 99%
Second compound 3.16 µM, first compound 0.01 µM
  viability, T/C: 30.7%
[25]
  viability, T/C: 7.65%
[26]
  viability, T/C: 6.3%
[27]
  viability, T/C: 5.81%
[28]
  viability, T/C: 5.63%
Second compound 10 µM, first compound 0.00316 µM
  viability, T/C: 46.4%
Second compound 10 µM, first compound 0.01 µM
  viability, T/C: 25.8%
[31]
  viability, T/C: 7.48%
[32]
  viability, T/C: 6.16%
[33]
  viability, T/C: 6.42%
[34]
  viability, T/C: 5.33%
